Experimental data: publication PMC3460821, “SIRT1 Activators Suppress Inflammatory Responses through Promotion of p65 Deacetylation and Inhibition of NF-κB Activity” (PLoS ONE, 2012)

Tested on: SIRT1
Assay: cells
Design: species or system U2OS or HEK 293; AlphaScreen of acetylated K310-p65 in lysates of cells co-expressing p300 and HA-p65; reduction by SIRT1 activators
Conditions: reduction of cellular acetylated p65 (K310); read-out: Cellular p65 acetylation assay IC50
Protocol: Acetylated p65 protein in cell lysates was measured by an AlphaScreen format based assay (Bosse et al., Principles of AlphaScreen. PerkinElmer Application Note (2001)). A sandwich comprised of a biotinylated anti-HA antibody (Roche, 12158167001) bound to streptavidin coated donor beads (PerkinElmer, 6760617M) and an anti-acetylated K310-p65 antibody (Abcam, ab19870) interacting with protein A coated acceptor beads was assembled to detect light emission upon acetylated HA-p65 protein binding to the donor and acceptor beads. A similar AlphaScreen assay to measure total HA-tagged p65 protein was also developed by replacing the anti-acetylated K310-p65 antibody with an anti-p65 antibody (Santa Cruz, sc-109). The level of acetylated p65 protein was normalized against the total HA-tagged p65 protein measured in parallel for the same sample. We developed a high throughput cellular assay to examine the ability of compounds to promote SIRT1-mediated deacetylation of p65 protein in cells. This assay system uses BacMam virus transduction in U2OS or HEK 293 cells to co-express p300 HAT and an HA-tagged p65 NF-κB subunit to enable detection of acetylated p65. […] Similarly, pharmacological inhibition of SIRT1 by a specific SIRT1 inhibitor, EX-527 [46], increased the levels of acetylated p65 protein (Figure 3D). […] STACs that were identified from biochemical assays (File S1) were evaluated in the acetylated p65 cellular assay. […] The compounds were tested for the inhibition of histone acetyltransferases (HATs) since this could result in a reduction of acetylated p65 that could not be distinguished from an enhancement of deacetylation.

IC50 [µM]	SMILES
0.84	O=C(Nc1nccs1)c1cccc2[nH]c(-c3cccc(N4CCOCC4)c3)nc12 [SRTCX1002]
1.42	O=C(Nc1nccs1)c1cccc2[nH]c(-c3ccccc3OCCN3CCOCC3)nc12 [SRTCX1003]
> 25	O=C(Nc1nccs1)c1cccc2[nH]c(-c3ccc4c(c3)OC(F)(F)O4)nc12 [SRTCZ1001]
